Reference: publication PMC7688903 (Frontiers in Microbiology, 2020)
≈ marks a conversion by molar mass, not a printed value. Entries after “also recorded” stand apart in the source; their conditions may differ. Counter-ions that a name gives are not always drawn. Like-named read-outs stand apart in the source and are kept apart here. Where a SMILES comes first, the peptide text is derived from it. Where no end group is shown, it is not given here. [ ]: non-standard residue; d: D form. hArg = N=C(N)NCCCC[C@H](N)C(=O)O; 2Thi = N[C@@H](Cc1cccs1)C(=O)O

Tests used:
[1] = test system: E. coli ATCC 25922; assay type: cell-based, Escherichia coli; details: ATCC 25922, 20 h
Description: (§1) The antimicrobial activities of the peptides were tested against E. coli ATCC 25922, P. aeruginosa ATCC 27853, carbapenem-resistant P. aeruginosa SIPI-012, A. baumannii ATCC 19606, carbapenem-resistant A. baumannii SIPI-025, S. aureus ATCC 25923, and C. albicans ATCC 10231. The minimum inhibitory concentration (MIC) values were determined using the microdilution method according to Clinical and Laboratory Standards Institute guidelines ([CLSI, 2008], [2012]). The peptides were dissolved in 10 mM PB to a concentration of 1280 μg/mL as stock solutions.
(§2) For inoculum preparation of bacteria, morphologically similar colonies selected from fresh MH agar plates were transferred using a loop into approximately 10 mL of MH broth in a capped test tube and vortexed. The suspension was adjusted with MH broth to achieve a turbidity equivalent to a 0.5 McFarland standard (BaSO4 solution prepared spectrophotometrically). A working suspension was prepared by making a 1:15 dilution followed by a 1:20 dilution of the stock suspension with MH broth medium to obtain approximately 5 × 10^5 CFU/mL. For inoculum preparation of yeast, five fresh colonies of approximately 1 mm diameter were picked from 24-hour-old cultures of C. albicans and suspended in 5 mL of sterile 0.85% saline. The resulting suspension was vortexed and the cell density was adjusted by adding sufficient sterile saline to achieve a turbidity equivalent to a 0.5 McFarland standard. A working suspension was prepared by making a 1:100 dilution followed by a 1:20 dilution of the stock suspension with RPMI 1640 broth medium to obtain 0.5 × 10^3 to 2.5 × 10^3 CFU/mL. Intermediate twofold dilutions of the peptides were prepared in MH broth and RPMI 1640 medium, and 90 μL aliquots were added to each well in addition to 10 μL of the inoculum prepared above.
(§3) Each plate included a growth control well and a sterility (uninoculated) control well. Colistin, vancomycin hydrochloride, and amphotericin B were used as positive controls for gram-negative bacteria, gram-positive bacteria, and fungi, respectively. The bacterial and fungal plates were incubated at 37°C for 20 h and 35°C for 48 h, respectively, both under ambient atmosphere. The inhibition of microbial growth was assessed visually. The MICs were determined from independent triplicate assays.

[2] = test system: P. aeruginosa ATCC 27853; assay type: cell-based, Pseudomonas aeruginosa; details: ATCC 27853, 20 h
Description: as §1, §2, §3

[3] = test system: carbapenem-resistant P. aeruginosa (CRPA) SIPI-012; assay type: cell-based, Pseudomonas aeruginosa; details: carbapenem-resistant (CRPA) SIPI-012, 20 h
Description: as §1, §2, §3

[4] = test system: A. baumannii ATCC 19606; assay type: cell-based, Acinetobacter baumannii; details: ATCC 19606, 20 h
Description: as §1, §2, §3

[5] = test system: carbapenem-resistant A. baumannii (CRAB) SIPI-025; assay type: cell-based, Acinetobacter baumannii; details: carbapenem-resistant (CRAB) SIPI-025, 20 h
Description: as §1, §2, §3

[6] = test system: S. aureus ATCC 25923; test: microbe, parasite or virus in culture; assay type: cell-based, Staphylococcus aureus
Description: as §1, §2, §3

[7] = test system: C. albicans ATCC 10231; test: microbe, parasite or virus in culture; assay type: cell-based, Candida albicans
Description: as §1, §2, §3

[8] = test system: proteases secreted by S. aureus ATCC 25923; test: in vitro; details: Staphylococcus aureus, S. aureus ATCC 25923 culture supernatant, pH 8
Description: The stabilities of the peptides toward proteases secreted by E. coli ATCC 25922, P. aeruginosa ATCC 27853, A. baumannii ATCC 19606, S. aureus ATCC 25923, and C. albicans ATCC 10231 were also examined. Microbial supernatants were prepared by resuspending single colonies of each strain in 20 mL of an appropriate culture medium followed by incubation at 37°C overnight. MH broth and 2% tryptone/2% dextrose were used as the culture media for bacteria and yeast, respectively. Each culture was then centrifuged at 12,000 × g for 10 min and the supernatant was adjusted to pH 8.0 with HCl or NaOH and then filtered through a 0.22 μm sterile filter membrane ([Zaet et al., 2017]). The peptides were then dissolved in the filtered supernatants to a concentration of 0.5 mg/mL, and the peptide-free supernatants were used as negative controls. The samples were incubated at 37°C for 24 h in a water bath and then analyzed by RP-HPLC as described above.

[9] = test system: human erythrocytes; test: Hemolytic activity assay; assay type: cell-based; details: human RBC in PB, 37°C, 1 h, OD420, total lysis control 0.1% SDS, three technical replicates
Description: Whole blood was obtained from a healthy volunteer. The red blood cells (RBC) were then centrifuged (800 × g, 10 min), washed twice with PB, resuspended in 1 mL of PB, and incubated with various concentrations of the peptides (32–128 μM) at 37°C for 1 h. As a positive control, total lysis of the RBC was accomplished by incubation with 0.1% SDS. For each condition, three technical replicates were performed. After incubation, the RBC were centrifuged at 800 × g for 10 min and the amount of hemoglobin released into the supernatant was determined by measuring the optical density OD420 using a SpectraMax i3x microplate reader (Molecular Devices) ([Zaet et al., 2017]).

[10] = test system: RAW 264.7 cells; test: Cell viability assay (MTT); assay type: cell-based, mouse; details: 1–128 μM peptide in DMEM with 4% FBS, 42 h, 595 nm, triplicate
Description: The peptides were dissolved in ddH2O to a concentration of 256 μM. RAW 264.7 cells were cultured in 100 μL of DMEM containing 10% FBS and seeded at a density of 1 × 10^4 cells in a 96-well culture plate. The plate was incubated at 37°C under 5% CO2 atmosphere overnight. After attaining 80% confluency, the cells were treated with various concentrations of the peptides (1–128 μM) dissolved in DMEM containing 4% FBS for 42 h. Cytotoxicity was determined using the MTT tetrazolium reduction assay and quantified spectrophotometrically at 595 nm using a SpectraMax i3x microplate reader. The cell viability was calculated with respect to control samples treated only with DMEM containing 4% FBS ([Khara et al., 2016]). Each test was done in triplicate and the concentration required for 50% inhibition of viability (IC50) was determined.

[11] = test system: human plasma proteases; test: in vitro
[12] = test system: Trypsin; test: trypsin in 0.1 M NH4HCO3 buffer (pH 8.2); details: 37°C, up to 24 h

| Molecule | MIC [1] [µg/mL] | MIC [2] [µg/mL] | MIC [3] [µg/mL] | MIC [4] [µg/mL] | MIC [5] [µg/mL] | MIC ([6]; ATCC 25923, 20 h) [µg/mL] | MIC ([7]; ATCC 10231, 48 h) [µg/mL] | remaining at 24 h, 0.5 mg/mL [8] [%] | Hemolysis rate (%) ([9]; 64 μM) | Hemolysis rate (%) ([9]; 128 μM) | IC50 [10] [µM] | metabolised at 2 h, 0.1 mg/mL [11] [%] | metabolised at 4 h, 0.1 mg/mL [11] [%] | MIC ([6]; Staphylococcus aureus, ATCC25923, 20 h) [µg/mL] | MIC ([7]; Candida albicans, ATCC10231, C. albicans ATCC 10231, RPMI 1640, 35°C, 48 h, visual, independent triplicate assays, read-out: MIC) [µg/mL] | fragment found [12] |
| --- | --- | --- | --- | --- | --- | --- | --- | --- | --- | --- | --- | --- | --- | --- | --- | --- |
| KRLFKRLFKYLRRF-NH2 [LP01] | 2 | 1 | 4 | 2 | 2 | 1 | 4 | 33.3 ± 5.69 | 29.58 ± 0.83 | 37.14 ± 1.29 | 16.6 ± 3.79 | > 40 | > 50 | – | – | – |
| CN[C@H](CC(C)C)C(=O)N[C@H]1C(=O)N[C@@H](CC(N)=O)C(=O)N[C@H]2C(=O)N[C@H]3C(=O)N[C@H](C(=O)N[C@H](C(=O)O)c4cc(O)cc(O)c4-c4cc3ccc4O)[C@H](O)c3ccc(c(Cl)c3)Oc3cc2cc(c3O[C@@H]2O[C@H](CO)[C@@H](O)[C@H](O)[C@H]2O[C@H]2C[C@](C)(N)[C@H](O)[C@H](C)O2)Oc2ccc(cc2Cl)[C@H]1O [Van, vancomycin hydrochloride, reference compound] | – | – | – | – | – | – | – | – | – | – | – | – | – | 0.5 | – | – |
| CC(C)C[C@H](NC(=O)[C@H](CCCCN)NC(=O)[C@H](CCCCN)NC(=O)[C@H](Cc1ccccc1)NC(=O)[C@H](CC(C)C)NC(=O)[C@H](CCCNC(=N)N)NC(=O)[C@@H](N)CCCCN)C(=O)N[C@@H](CC(C)C)C(=O)N[C@@H](CCCCN)C(=O)N[C@@H](Cc1ccc(O)cc1)C(=O)N[C@@H](CC(C)C)C(=O)N[C@@H](CCCNC(=N)N)C(=O)N[C@H](CCCCN)C(=O)N[C@@H](Cc1ccccc1)C(N)=O [DP03] (H-KRLFKKLLKYLR[dK]F-NH2) | 1 (≈ 0.532 µM) | 1 (≈ 0.532 µM) | 8 (≈ 4.25 µM) | 2 (≈ 1.06 µM) | 2 (≈ 1.06 µM) | 1 (≈ 0.532 µM) | 4 (≈ 2.13 µM) | 73.5 ± 4.83 | 41.96 ± 4.14 | 51.55 ± 3.89 | 45 ± 5.96 | > 40 | > 50 | – | – | – |
| CC(C)C[C@H](NC(=O)[C@H](Cc1ccc(O)cc1)NC(=O)[C@H](CCCCN)NC(=O)[C@H](CC(C)C)NC(=O)[C@H](CC(C)C)NC(=O)[C@H](CCCCN)NC(=O)[C@H](CCCCN)NC(=O)[C@H](Cc1ccccc1)NC(=O)[C@H](CC(C)C)NC(=O)[C@H](CCCNC(=N)N)NC(=O)[C@@H](N)CCCCNC(=N)N)C(=O)N[C@@H](CCCNC(=N)N)C(=O)N[C@@H](CCCCN)C(=O)N[C@@H](Cc1cccs1)C(N)=O [UP10] (H-[hArg]RLFKKLLKYLRK[2Thi]-NH2) | 2 (≈ 1.04 µM) | 1 (≈ 0.519 µM) | 4 (≈ 2.07 µM) | 2 (≈ 1.04 µM) | 2 (≈ 1.04 µM) | 0.5 (≈ 0.259 µM) | 4 (≈ 2.07 µM) | 31.6 ± 7.81 | 56.82 ± 2.62 | 95.02 ± 1.84 | 22.8 ± 4.65 | > 40 | > 50 | – | – | – |
| C[C@@H]1[C@H](O)[C@@H](C)/C=C/C=C/C=C/C=C/C=C/C=C/C=C/[C@H](O[C@@H]2O[C@H](C)[C@@H](O)[C@H](N)[C@@H]2O)C[C@@H]2O[C@](O)(C[C@@H](O)C[C@@H](O)[C@H](O)CC[C@@H](O)C[C@@H](O)CC(=O)O[C@H]1C)C[C@H](O)[C@H]2C(=O)O [AmB, amphotericin B, reference compound] | – | – | – | – | – | – | – | – | – | – | – | – | – | – | 0.25 (≈ 0.271 µM) | – |
| RRIFKRLFKYLRRF-NH2 [LP02] | 2 | 2 | 8 | 2 | 4 | 1 | 8 | 19.7 ± 8.58 | 24.18 ± 2.01 | 45.40 ± 2.40 | 14.4 ± 1.44 | > 40 | > 50 | – | – | – |
| krLFkkLLkYLrkF | – | – | – | – | – | – | – | – | – | – | – | – | – | – | – | krLFkkLLkYLr (k) 1–12, major, 18 h; also recorded: (r) LFkkLLkYLr (k) 3–12, major, 18 h |
| KRLFkkLLKYLRkF | – | – | – | – | – | – | – | – | – | – | – | – | – | – | – | (k) kLLK (Y) 6–9, major, 18 h; also recorded: (K) YLR (k) 10–12, major, 18 h; also recorded: (K) YLRkF 10–14, major, 18 h; also recorded: (K) RLFk (k) 2–5, major, 18 h |
